From paper PMC11845761, “Intestinal human carboxylesterase 2 (CES2) expression rescues drug metabolism and most metabolic syndrome phenotypes in global Ces2 cluster knockout mice” (Acta Pharmacologica Sinica, 2024)
Like-named read-outs stand apart in the source and are kept apart here. Marks after values point to notes of the source that are not given here.

Tests used:
[1] = Tissue concentrations of capecitabine and its metabolites 2 h after oral capecitabine in CES2-modified mice; assay type: in vivo, mouse; settings: oral capecitabine 500 mg/kg; for concentration at 2 h: female, mouse, oral, 500 mg/kg
Method: (§1) For capecitabine 2-h experiments, 6–7 female mice received oral capecitabine (500 mg/kg, 10 μL/g), and tail vein blood samples were collected at 0.125, 0.25, 0.5 and 1 h after drug administration. For the vinorelbine 4-h experiment, 6-7 male mice received vinorelbine intravenously (10 mg/kg, 5 μL/g) or orally (10 mg/kg, 10 μL/g) using a blunt-ended needle. Tail vein blood samples were collected at 0.125, 0.25, 0.5, 1 and 2 h after drug administration. […] At the last time point in each experiment (2 or 4 h), mice were anesthetized with 5% isoflurane and blood was collected by cardiac puncture. […] Plasma was isolated from the blood by centrifugation at 9000 × g for 6 min at 4 °C, and the plasma fraction was collected and stored at −30 °C until analysis.
(§2) Concentrations of capecitabine (and its metabolites) and vinorelbine (and its metabolite) in mouse plasma samples and organ homogenates were determined using two independent validated high-performance liquid chromatography-tandem mass spectrometry assays.
(§3) Pharmacokinetic parameters were calculated by non-compartmental methods using the PK solver software. […] Differences were considered statistically significant when P < 0.05. All data are presented as mean ± SD.

[2] = Plasma pharmacokinetics of capecitabine and its metabolites after oral capecitabine in CES2-modified mice; assay type: in vivo, mouse; settings: oral capecitabine 500 mg/kg, plasma; for AUC(0-t) / Cmax / Tmax: female, mouse, po, 500 mg/kg; for AUC(0-t): read-out: AUC0-2h; for Cmax: read-out: Cmax; for Tmax: read-out: Tmax
Method: as §1, §2, §3

[3] = Ces2^–/– (Ces2 cluster knockout), female Ces2^–/– mice

- Colon concentration ratio (metabolite/capecitabine) ([1]; female Ces2^–/– mice): 2.0 ± 0.4
- Liver concentration ratio (metabolite/capecitabine) ([1]; female Ces2^–/– mice): 2.0 ± 0.6
- Small intestine concentration ratio (metabolite/capecitabine) ([1]; female Ces2^–/– mice): 0.36 ± 0.20
- Small intestine contents concentration ratio (metabolite/capecitabine) ([1]; female Ces2^–/– mice): 0.11 ± 0.04
- Colon concentration ratio (metabolite/capecitabine) ([1]; female Ces2^–/–A mice): 3.2 ± 0.2
- Liver concentration ratio (metabolite/capecitabine) ([1]; female Ces2^–/–A mice): 8.8 ± 3.6
- Small intestine concentration ratio (metabolite/capecitabine) ([1]; female Ces2^–/–A mice): 0.45 ± 0.21
- Small intestine contents concentration ratio (metabolite/capecitabine) ([1]; female Ces2^–/–A mice): 0.10 ± 0.06
- Colon concentration ratio (metabolite/capecitabine) ([1]; female Ces2^–/–V mice): 5.1 ± 2.1
- Liver concentration ratio (metabolite/capecitabine) ([1]; female Ces2^–/–V mice): 4.0 ± 1.0***##^^
- Small intestine concentration ratio (metabolite/capecitabine) ([1]; female Ces2^–/–V mice): 1.80 ± 0.88^###^^^
- Small intestine contents concentration ratio (metabolite/capecitabine) ([1]; female Ces2^–/–V mice): 0.13 ± 0.05
- Colon concentration ratio (metabolite/capecitabine) ([1]; female wild-type mice): 6.9 ± 1.3
- Liver concentration ratio (metabolite/capecitabine) ([1]; female wild-type mice): 17.4 ± 7.3
- Small intestine concentration ratio (metabolite/capecitabine) ([1]; female wild-type mice): 3.20 ± 1.70
- Small intestine contents concentration ratio (metabolite/capecitabine) ([1]; female wild-type mice): 0.19 ± 0.08
- concentration at 2 h ([1]; Ces2^-/-, liver, female Ces2^–/– mice, read-out: Cliver (liver concentration)): 33300 ± 11600 ng/g
- concentration at 2 h ([1]; Ces2^-/-, small intestine, female Ces2^–/– mice, read-out: CSI (small intestine tissue concentration)): 5410 ± 1430 ng/g
- concentration at 2 h ([1]; Ces2^-/-A, liver, female Ces2^–/–A mice, read-out: Cliver (liver concentration)): 36600 ± 5870 ng/g
- concentration at 2 h ([1]; Ces2^-/-A, small intestine tissue, female Ces2^–/–A mice, read-out: CSI (small intestine tissue concentration)): 6220 ± 1830 ng/g
- concentration at 2 h ([1]; Ces2^-/-V, liver, female Ces2^–/–V mice, read-out: Cliver (liver concentration)): 23300 ± 8530 ng/g
- concentration at 2 h ([1]; Ces2^-/-V, small intestine, female Ces2^–/–V mice, read-out: CSI (small intestine tissue concentration)): 3600 ± 1570 ng/g
- concentration at 2 h ([1]; colon, female Ces2^–/– mice, read-out: Ccolon (colon concentration)): 25700 ± 10700 ng/g
- concentration at 2 h ([1]; colon, female Ces2^–/–A mice, read-out: Ccolon (colon concentration)): 28200 ± 5870 ng/g
- concentration at 2 h ([1]; colon, female Ces2^–/–V mice, read-out: Ccolon (colon concentration)): 21200 ± 8100 ng/g
- concentration at 2 h ([1]; colon, female wild-type mice, read-out: Ccolon (colon concentration)): 14900 ± 3800 ng/g
- concentration at 2 h ([1]; liver, female wild-type mice, read-out: Cliver (liver concentration)): 20300 ± 5740 ng/g
- concentration at 2 h ([1]; small intestine contents, female Ces2^–/– mice, read-out: CSIC (small intestine contents concentration)): 10800 ± 5610 ng/g
- concentration at 2 h ([1]; small intestine contents, female Ces2^–/–A mice, read-out: CSIC (small intestine contents concentration)): 8120 ± 2840 ng/g
- concentration at 2 h ([1]; small intestine contents, female Ces2^–/–V mice, read-out: CSIC (small intestine contents concentration)): 5180 ± 2410 ng/g
- concentration at 2 h ([1]; small intestine contents, female wild-type mice, read-out: CSIC (small intestine contents concentration)): 4410 ± 2350 ng/g
- concentration at 2 h ([1]; small intestine tissue, female wild-type mice, read-out: CSI (small intestine tissue concentration)): 4510 ± 1340 ng/g
- AUC0-2h ratio (metabolite/capecitabine) ([2]; female Ces2^–/– mice): 6.4 ± 1.9
- AUC0-2h ratio (metabolite/capecitabine) ([2]; female Ces2^–/–A mice): 6.4 ± 2.4
- AUC0-2h ratio (metabolite/capecitabine) ([2]; female Ces2^–/–V mice): 8.0 ± 2.2
- AUC0-2h ratio (metabolite/capecitabine) ([2]; female wild-type mice): 21.3 ± 3.5
- AUC(0-t) [2, 3]: 175 ± 37.3 µg·h/mL
- Cmax [2, 3]: 121 ± 23.9 µg/mL
- Tmax [2, 3]: 27.6 ± 16.2 min
- AUC(0-t) ([2]; female Ces2^–/–A mice): 165 ± 45.2 µg·h/mL
- Cmax ([2]; female Ces2^–/–A mice): 117 ± 35.7 µg/mL
- Tmax ([2]; female Ces2^–/–A mice): 27.6 ± 6 min
- AUC(0-t) ([2]; female Ces2^–/–V mice): 123 ± 34.7 µg·h/mL
- Cmax ([2]; female Ces2^–/–V mice): 80 ± 18.2 µg/mL
- Tmax ([2]; female Ces2^–/–V mice): 36.6 ± 22.8 min
- AUC(0-t) ([2]; female wild-type mice): 123 ± 24.9 µg·h/mL
- Cmax ([2]; female wild-type mice): 101 ± 18 µg/mL
- Tmax ([2]; female wild-type mice): 15 ± 8.4 min
SMILES: C[C@H]1O[C@@H](n2cc(F)c(N)nc2=O)[C@H](O)[C@@H]1O [5’-DFCR, 5’-deoxy-5-fluorocytidine]
